# Data reported in article PMC12587545, “Noncytotoxic polymyxin derivatives enhance antibiotic action against multidrug-resistant Gram-negative bacteria” (Antimicrobial Agents and Chemotherapy, 2025).
# Like-named read-outs stand apart in the source and are kept apart here. Positions of bridges follow the written chain, without caps; N, C: chain ends. Non-standard residues stand in square brackets, D forms with d. Residues, ends and D or L forms follow the SMILES beside them. *: point of attachment. Agp = N=C(N)NC[C@H](N)C(=O)O; X1 = CC[C@H](C)CCCCC(=O)*; Octanoyl = CCCCCCCC(=O)*; Dab = NCC[C@H](N)C(=O)O; Dap = NC[C@H](N)C(=O)O
# Key:
# A. baumannii [1] = format: cell-based, Acinetobacter baumannii
# Method: Gram-negative and Gram-positive bacterial isolates were grown in lysogeny broth (LB) and brain heart infusion, respectively, overnight in a shaking incubator at 250 rpm and at 37°C.
# The antibacterial activity of the antibiotics and compounds was assessed using the broth microdilution assay in accordance with Clinical Laboratory Standards Institute (CLSI) guidelines ([36]), and by following a previously described protocol ([27][–][29], [54], [55]). Bacterial culture grown overnight was diluted in saline to 0.5 McFarland turbidity and was further diluted 1:50 in CAMHB to attain a final concentration of 5 × 10^5 colony-forming units (cfu)/mL for inoculation. The antibiotic or compound was serially diluted 2-fold in CAMHB on a 96-well plate and was incubated with equal volumes of bacterial inoculum overnight at 37°C. Wells containing only media were used as negative controls, and wells containing only bacteria were used as positive controls. Antibacterial activity was measured by the MIC, or the lowest concentration of agent required to inhibit visible bacterial growth. Turbidity was confirmed with a Molecular Devices (United States) EMax Plus microplate reader at a wavelength of 590 nm.
# E. cloacae = system: E. cloacae
# Method: (§1) The bacterial isolates were acquired from ATCC or the Canadian Ward Surveillance (CANWARD) study ([56]). CANWARD isolates were collected from infected patients admitted to participating medical centers across Canada.
# (§2) The antibiotic or compound was serially diluted 2-fold in CAMHB on a 96-well plate and was incubated with equal volumes of bacterial inoculum overnight at 37°C. Wells containing only media were used as negative controls, and wells containing only bacteria were used as positive controls. Antibacterial activity was measured by the MIC, or the lowest concentration of agent required to inhibit visible bacterial growth. Turbidity was confirmed with a Molecular Devices (United States) EMax Plus microplate reader at a wavelength of 590 nm.
# P. aeruginosa [2] = system: P. aeruginosa
# Method: as §1, §2
# K. pneumoniae = system: K. pneumoniae
# Method: as §1, §2
# E. coli = conditions: for Resistance phenotype of MDR clinical isolates (antibiotic susceptibility value): Table S4
# Method: as §1
# as §2, with “growth.” for “growth. Turbidity was confirmed with a Molecular Devices (United States) EMax Plus microplate reader at a wavelength of 590 nm.”
# HK-2 = format: cell-based, human
# Method: (§3) Kidney cell lines, HK-2 (CRL-2190) and RPTEC/TERT1 (CRL-4031), and neural cell lines, U-87 MG (HTB-14) and SK-N-SH (HTB-11), were obtained from American Type Culture Collection (ATCC). HK-2 cells were cultured in T75 flasks with keratinocyte serum-free medium supplemented with bovine pituitary extract, human epidermal growth factor, and 2.5% FBS. RPTEC/TERT1 cells were cultured in T75 flasks with Dulbecco’s modified Eagle’s medium:F12 supplemented with the ATCC (United States) human telomerase reverse transcriptase immortalized RPTEC growth kit, G418 (0.1 mg/mL final concentration), and 2% FBS. Both U-87 MG and SK-N-SH cells were cultured in minimal essential media supplemented with 10% FBS. The cells were incubated in a humidified atmosphere at 5% CO2 and at 37°C.
# (§4) The cytotoxicity of the compounds toward the mammalian cell lines was assessed using the cell viability assay protocols as previously described ([29]). Designated wells in 96-well plates were seeded with HK-2 (5,000 cells), RPTEC/TERT1 (8,000 cells), U-87 MG (7,000 cells), or SK-N-SH (8,000 cells) in 50 µL. Blank wells received an identical volume of only media. After incubating the cells for 24 h, all wells were treated with varying concentrations of the compound and incubated for 48 h. Subsequently, PrestoBlue reagent (Invitrogen, United States) was added to the wells to a final concentration of 10% (vol/vol), and the plate was incubated for an additional 1 h. Fluorescence was measured with a SpectraMax M2 plate reader (Molecular Devices, United States), at excitation and emission wavelengths of 560 and 590 nm, respectively. Values from the blank wells were subtracted from the corresponding wells containing cells. The cell viability relative to the controls with vehicle was calculated and presented as mean ± standard deviation of at least two experiments with five replicates each. CC50 values were obtained using GraphPad Prism (version 10.4.1) by non-linear regression (four-parameter logistic fit).
# RPTEC/TERT1 = format: cell-based, human; conditions: 48 h
# Method: as §3, §4
# [3] = cited from earlier work
# Method: Although the amphiphilic nature of polymyxins is crucial to permeabilize the outer membrane, this property can also be detrimental as it increases binding affinity to serum proteins, thereby limiting bioavailability ([50]). […] To assess the impact of serum binding on antibiotic potentiation, FBS was added to the media to simulate these conditions (Table 10). Zoliflodacin potentiation by compound 1 was diminished with increasing ...
# U-87 MG = assay: Cell viability assay (PrestoBlue); format: cell-based; conditions: U-87 MG
# Method: as §3
# as §4, with “After incubating the cells for 24 h, all wells were treated with varying concentrations of the compound and incubated for 48 h.” left out
# SK-N-SH = assay: Cell viability assay (PrestoBlue); format: cell-based; conditions: SK-N-SH
# Method: as §3
# as §4, with “After incubating the cells for 24 h, all wells were treated with varying concentrations of the compound and incubated for 48 h.” left out
# P. aeruginosa [4] = assay: Checkerboard assay (antibiotic potentiation); format: cell-based, Pseudomonas aeruginosa; conditions: P. aeruginosa PAO1; compound alone
# Method: The interaction between the compounds and the antibiotics was evaluated using the fractional inhibitory concentration (FIC) index. FIC indices of ≤0.5 is synergistic, 0.5 < × ≤ 4 is additive, whereas >4 is antagonistic ([34]).
# Synergy was measured by the FIC index, which is the summation of the individual FICs of the antibiotic and the compound. The FIC is calculated by dividing the MIC of one agent in the presence of another by the MIC of the agent alone. […] The FBS studies were conducted by following a previously published protocol ([29], [50]). The FBS was inactivated by heating at 56°C for 30 min with constant swirling.
# A. baumannii [5] = assay: Checkerboard assay (antibiotic potentiation); format: cell-based, Acinetobacter baumannii; conditions: A. baumannii ATCC 17978; compound alone
# Method: The interaction between the compounds and the antibiotics was evaluated using the fractional inhibitory concentration (FIC) index. FIC indices of ≤0.5 is synergistic, 0.5 < × ≤ 4 is additive, whereas >4 is antagonistic ([34]). […] .
# as §1
# The antibiotic and compounds were serially diluted 2-fold in CAMHB along the x- and y-axis, respectively, on a 96-well plate that was subsequently incubated with equal volumes of bacterial inoculum overnight at 37°C. Wells containing only media were used as negative controls, and wells containing only bacteria were used as positive controls. Synergy was measured by the FIC index, which is the summation of the individual FICs of the antibiotic and the compound. The FIC is calculated by dividing the MIC of one agent in the presence of another by the MIC of the agent alone. Turbidity was confirmed with a Molecular Devices (United States) EMax Plus microplate reader at a wavelength of 590 nm. The FBS studies were conducted by following a previously published protocol ([29], [50]). The FBS was inactivated by heating at 56°C for 30 min with constant swirling.
# [6] = A. baumannii 92247, colistin-resistant
# [7] = E. cloacae 121887, colistin-resistant
# [8] = P. aeruginosa 259-96916, clinical isolate
# [9] = P. aeruginosa 262-101856, clinical isolate
# [10] = P. aeruginosa 264-104354, clinical isolate
# [11] = P. aeruginosa 101243, colistin-resistant
# [12] = P. aeruginosa 114228, colistin-resistant
# [13] = K. pneumoniae 113250, colistin-resistant
# [14] = E. coli 94393, colistin-resistant
# [15] = E. coli 94474, colistin-resistant
compound,measurement,setting,value
"CN(C)c1cc(CNCC(C)(C)C)c(O)c2c1C[C@H]1C[C@H]3[C@H](N(C)C)C(O)=C(C(N)=O)C(=O)[C@@]3(O)C(O)=C1C2=O [OMC, omadacyline]",Resistance phenotype (antibiotic susceptibility profile),A. baumannii [1]; A. baumannii AB027,1
same,Resistance phenotype (antibiotic susceptibility profile),A. baumannii [1]; A. baumannii AB031,2
same,Resistance phenotype of MDR clinical isolates (antibiotic susceptibility value),"E. cloacae; E. cloacae 117029, Table S4",4
same,Resistance phenotype (antibiotic susceptibility profile),P. aeruginosa [2]; P. aeruginosa 259-96916,64
same,Resistance phenotype (antibiotic susceptibility profile),P. aeruginosa [2]; P. aeruginosa 262-101856,64
same,Resistance phenotype (antibiotic susceptibility profile),P. aeruginosa [2]; P. aeruginosa 264-104354,64
same,Resistance phenotype (antibiotic susceptibility profile),P. aeruginosa [2]; P. aeruginosa 114228,128
same,Resistance phenotype (antibiotic susceptibility profile),K. pneumoniae; K. pneumoniae 113250,2
same,Resistance phenotype (antibiotic susceptibility profile),K. pneumoniae; K. pneumoniae 116381,4
same,Resistance phenotype of MDR clinical isolates (antibiotic susceptibility value),E. coli; E. coli 94393 (mcr-1 +),4
same,Resistance phenotype of MDR clinical isolates (antibiotic susceptibility value),E. coli; E. coli 94474 (mcr-1 +),16
same,Resistance phenotype of MDR clinical isolates (antibiotic susceptibility value),E. coli; E. coli 107115,4
CCCCCCCC(=O)N[C@@H](CCN)C(=O)N[C@H](C(=O)N[C@@H](CCN)C(=O)N[C@H]1CCNC(=O)[C@H]([C@@H](C)O)NC(=O)[C@H](CCN)NC(=O)[C@H](CCN)NC(=O)[C@H]([C@@H](C)O)NC(=O)[C@@H]([C@H](C)O)NC(=O)[C@H](CCN)NC1=O)[C@@H](C)O [Compound F230] (Octanoyl-[Dab]T[Dab][Dab][Dab][dT]T[Dab][Dab]T; lactam 4-C),CC50 in HK-2,HK-2; 48 h,263.1 µM
same,CC50 in RPTEC/TERT1,RPTEC/TERT1,471.4 µM
CCCCCCCC(=O)N[C@@H](CNC(=N)N)C(=O)N[C@H](C(=O)N[C@@H](CNC(=N)N)C(=O)N[C@H]1CCNC(=O)[C@H]([C@@H](C)O)NC(=O)[C@H](CNC(=N)N)NC(=O)[C@H](CNC(=N)N)NC(=O)[C@H](CC(C)C)NC(=O)[C@@H](Cc2ccccc2)NC(=O)[C@H](CNC(=N)N)NC1=O)[C@@H](C)O [Compound 2] (Octanoyl-[Agp]T[Agp][Dab][Agp][dF]L[Agp][Agp]T; lactam 4-C),CC50 in HK-2,HK-2; 48 h,26.9 µM
same,CC50 in RPTEC/TERT1,RPTEC/TERT1,28 µM
"CC[C@H](C)CCCCC(=O)N[C@@H](CCN)C(=O)N[C@H](C(=O)N[C@@H](CCN)C(=O)N[C@H]1CCNC(=O)[C@H]([C@@H](C)O)NC(=O)[C@H](CCN)NC(=O)[C@H](CCN)NC(=O)[C@H](CC(C)C)NC(=O)[C@@H](CC(C)C)NC(=O)[C@H](CCN)NC1=O)[C@@H](C)O [Colistin, colistin] (X1-[Dab]T[Dab][Dab][Dab][dL]L[Dab][Dab]T; lactam 4-C (inferred); N-terminus assumed)",MIC,A. baumannii [1]; [6],4 µg/mL
same,MIC,A. baumannii [1]; A. baumannii 110193,0.5 µg/mL
same,MIC,A. baumannii [1]; A. baumannii AB027,0.25 µg/mL
same,MIC,A. baumannii [1]; A. baumannii AB031,0.25 µg/mL
same,MIC,E. cloacae; E. cloacae 117029,0.25 µg/mL
same,MIC,E. cloacae; [7],>16 µg/mL
same,MIC,P. aeruginosa [2]; [8],0.5 µg/mL
same,MIC,P. aeruginosa [2]; [9],2 µg/mL
same,MIC,P. aeruginosa [2]; [10],1 µg/mL
same,MIC,P. aeruginosa [2]; [11],1024 µg/mL
same,MIC,P. aeruginosa [2]; [12],4 µg/mL
same,MIC,K. pneumoniae; [13],256 µg/mL
same,MIC,K. pneumoniae; K. pneumoniae 116381,1 µg/mL
same,MIC,E. coli; [14],4 µg/mL
same,MIC,E. coli; [15],16 µg/mL
same,MIC,E. coli; E. coli 107115,0.125 µg/mL
same,MIC,E. coli; E. coli 131629,≤0.25 µg/mL
Polymyxin B [PMB],MIC,A. baumannii [1]; [6],8 µg/mL
same,MIC,A. baumannii [1]; A. baumannii 110193,1 µg/mL
same,MIC,A. baumannii [1]; A. baumannii AB027,0.25 µg/mL
same,MIC,"A. baumannii [1]; A. baumannii ATCC 17978, wild-type",2 µg/mL
same,MIC,E. cloacae; E. cloacae 117029,0.5 µg/mL
same,MIC,E. cloacae; [7],>128 µg/mL
same,MIC,P. aeruginosa [2]; [8],≤0.063 µg/mL
same,MIC,P. aeruginosa [2]; [9],0.5 µg/mL
same,MIC,P. aeruginosa [2]; [10],2 µg/mL
same,MIC,P. aeruginosa [2]; [11],>128 µg/mL
same,MIC,P. aeruginosa [2]; [12],64 µg/mL
same,MIC,"P. aeruginosa [2]; P. aeruginosa PAO1, wild-type, CAMHB, overnight 37°C",1 µg/mL
same,MIC,K. pneumoniae; [13],128 µg/mL
same,MIC,K. pneumoniae; K. pneumoniae 116381,1 µg/mL
same,mean protein binding,[3],> 90%
same,median protein binding,[3],58%
same,MIC,E. coli; [14],4 µg/mL
same,MIC,E. coli; [15],16 µg/mL
same,MIC,E. coli; E. coli 107115,0.25 µg/mL
same,MIC,E. coli; E. coli 131629,≤0.25 µg/mL
same,MIC,"E. coli; E. coli ATCC 25922, wild-type",0.5 µg/mL
same,toxicity,U-87 MG,lack of toxicity
same,toxicity,SK-N-SH,lack of toxicity
CCCCCCCC(=O)N[C@@H](CN)C(=O)N[C@H](C(=O)N[C@@H](CC(=O)O)C(=O)N[C@H]1CCNC(=O)[C@H]([C@@H](C)O)NC(=O)[C@H](CN)NC(=O)[C@H](CN)NC(=O)[C@H](CC(C)C)NC(=O)[C@@H](Cc2ccccc2)NC(=O)[C@H](CN)NC1=O)[C@@H](C)O [Compound 3] (Octanoyl-[Dap]TD[Dab][Dap][dF]L[Dap][Dap]T; lactam 4-C),MICcompound,P. aeruginosa [4],>128 µg/mL
same,CC50 in HK-2,HK-2; 48 h,215.5 µM
same,CC50 in RPTEC/TERT1,RPTEC/TERT1,627.2 µM
same,MIC,A. baumannii [1],>128 µg/mL
same,MIC,P. aeruginosa [2],>128 µg/mL
same,MIC,E. coli,>128 µg/mL
same,MICcompound,A. baumannii [5],>128 µg/mL
CCCCCCCC(=O)N[C@@H](CCN)C(=O)N[C@H](C(=O)N[C@@H](CC(=O)O)C(=O)N[C@H]1CCNC(=O)[C@H]([C@@H](C)O)NC(=O)[C@H](CCN)NC(=O)[C@H](CCN)NC(=O)[C@H](CC(C)C)NC(=O)[C@@H](Cc2ccccc2)NC(=O)[C@H](CCN)NC1=O)[C@@H](C)O [Compound 4] (Octanoyl-[Dab]TD[Dab][Dab][dF]L[Dab][Dab]T; lactam 4-C),CC50 in HK-2,HK-2,236.1 µM
same,CC50 in HK-2,HK-2; 48 h,236.8 µM
same,CC50 in RPTEC/TERT1,RPTEC/TERT1,238.8 µM
